Experimental data as given in patent US20200208112A1, “Method of Selecting Genetically Modified Hematopoietic Stem Cells” (priority 2017, published 2020).

Legend:
NIH3T3 cells = test: Puromycin selection and ganciclovir sensitivity of LTGCPU7-transduced NIH3T3 cells; assay type: cell-based
Procedure: a. NIH3T3 cells were mock-transduced (NT) or transduced with LTGCPU7, and LTGCPU7-transduced cells were selected with puromycin. Equivalent numbers of mock- and LTGCPU7-transduced/selected cells were treated with GCV at the indicated concentration. Living cells were counted three days later.
(§1) (Beckman Coulter). Where indicated, purification was performed with a Mustang Q anion exchange membrane cartridge (Pall Corporation), as previously described (Kutner et al., Nature protocols, 2009, 4, 495-505) and a 40K ZebaSpin desalting column (ThermoFisher Scientific), according to the manufacturer's instructions, with concentration by ultracentrifugation. Infectious titers were determined by qPCR, as previously described (Payen, E. et al., Methods in enzymology, 2012, 507, 109-124). When indicated, transduced NIH3T3 cells were selected on puromycin and treated with various concentrations of ganciclovir (Cymevan, Roche). Adult and cord blood CD34^+ cells were cultured in SCGM (CellGenix) and X-VIVO 20 (Lonza) medium, respectively, and transduced as previously described (Negre, O. et al., Current gene therapy, 2015, 15, 64-81). Cells were selected 48 hours after transduction, on puromycin hydrochloride (5 μg/mL, Sigma-Aldrich).

CB CD34+ cells = test: Conditional suicide in vitro: ganciclovir treatment of CB CD34+ cells, erythroid progenitor assay; assay type: cell-based, human
Procedure: (§2) a.b.c.d. Human cord blood CD34^+ cells were transduced with LTGCPU7 and treated with puromycin and cyclosporine A for 24 hours. Non-transduced (NT) and LTGCPU7-transduced cells were then treated with ganciclovir (GCV) for three days, counted (a) and plated on semi-solid medium for the evaluation of erythroid progenitor cell eradication (b). Selected cells were also injected into 16 NSG mice, half of which were treated with GCV four weeks later (50 mg/kg, 6 days per week, for 2 weeks). Human chimerism (c) and VCN in human CD45^+ cells (d) were determined 2 months later.
(§3) CB CD34+ cells were transduced with LTGCPU7, they were treated with ganciclovir for 72 hours, and plated on methylcellulose. The toxicity of ganciclovir was limited in non-transduced cells (FIG. 8a and FIG. 8b) and the number of transduced erythroid progenitors decreased by a factor of 200 and 1000 in the presence of 1 μM and 5 μM ganciclovir respectively (FIG. 8b). The transduced cells were injected into 16 NSG mice. Four weeks later, eight of the mice received ganciclovir. […] The absence of hCD45+ cells in mice with levels below the limit of sensitivity (<0.01%) was confirmed by the lack of enrichment observed on hCD45 cell sorting.

[1] = test system: transduced human hCD45+ cells; test: Conditional suicide in vivo: ganciclovir treatment of NSG mice carrying transduced human cells; conditions: treated group, 50 mg/kg 6 days per week for 2 weeks, two months later
Procedure: as §2, §3

[2] = test system: mobilized peripheral blood (mPB) CD34+ cells; test: Puromycin selection of transduced mobilized peripheral blood CD34+ cells (mean VCN, progenitor assay); assay type: cell-based, human
Procedure: as §1
(§4) Vector copy numbers were determined by the comparative Ct method and set at integer values. Colony-forming cells with VCN values between 0.5 and 1.5 were considered to have a VCN of 1; those with VCN values between 1.5 and 2.5 were considered to have a VCN of 2, and so on. LTC-IC cells were analyzed as previously described (Payen, E. et al., Methods in enzymology, 2012, 507, 109-124). The percentage of vector-modified LTC-IC during the readout phase of the assay was determined, by subjecting no more than one clonogenic myeloid colony per well to qPCR-based scoring to ensure that only independent LTC-ICs were analyzed.
The LTGCPU1 vector expressing the puromycin N-acetyl-transferase (PAC) gene under the human PGK promoter is derived from a β-globin LV that has been tested in an approved human trial for the gene therapy of the beta-hemoglobinopathies (Cavazzana Calvo et al., Nature, 2010; 467, 318-322; FIG. 1). LTGCPU1 transduced bone marrow (BM) CD34^+ cells were transferred onto selective medium containing 10 μg/mL puromycin at 24 or 48 hours after transduction. They were incubated for 24 hours, and the frequency of functional hematopoietic progenitor cell subsets was evaluated. The absolute numbers of vector-bearing erythroid progenitors (BFU-Es) were similar in the presence and absence of treatment, regardless of the time allowed for PAC gene expression. However, incubation for two days was required for the myeloid (CFU-GMs) and long-term progenitor cells (LTC-ICs) to acquire full resistance to the antibiotic (FIG. 2a). Mobilized peripheral blood (mPB) CD34^+ cells were also transduced with LTGCPU1 and treated with puromycin. The mean vector copy number (VCN) per cell was determined for pooled cells and compared with the theoretical VCN obtained in optimal conditions (eradication of all non-transduced cells and survival of all vector-bearing cells). In non-selective conditions, the mean VCN was 0.17. Based on the assumption that vector integration obeys Poisson statistics (see below), optimal selection should give rise to 1.08 copies of the vector per cell. Mean VCN was 1.6 when cells were selected 24 hours after transduction, and close to the expected value (1.08) if puromycin treatment began two or three days after transduction (FIG. 2b). […] With this optimized protocol, the proportion of vector-bearing progenitors (myeloid and erythroid) increased from 10-20% to more than 90% following treatment with 5 μg/mL puromycin (FIG. 2c).

[3] = test system: bone marrow (BM) CD34+ cells; test: Puromycin selection of LTGCPU1-transduced bone marrow CD34+ cells (progenitor and LTC-IC assays); assay type: cell-based, human; conditions: 10 μg/mL puromycin for 24 hours, 24 or 48 hours after transduction
Procedure: as §1
as §4, with “Colony-forming cells with VCN values between 0.5 and 1.5 were considered to have a VCN of 1; those with VCN values between 1.5 and 2.5 were considered to have a VCN of 2, and so on.” left out, “analyzed. […]” for “analyzed.”

cord blood CD34+ cells = test: Selection of LTGCPU7-transduced cord blood CD34+ cells, progenitor assay on methylcellulose; assay type: cell-based, human
Procedure: as §1, §4

[4] = test system: SCID-repopulating cells (SRC); test: Transplantation of transduced and selected cord blood CD34+ cells into NSG mice (SRC selection); conditions: puromycin alone, three months after transplantation
Text: NOD.Cg-Prkdc^scid Il2rg^tmlWjl/SzJ (NOD-scid IL2rgamma^null abbreviated to NSG) mice were obtained from Charles River Laboratories (Saint Germain sur l'Arbresle, France) and kept in individually ventilated cages supplied with sterile food and autoclaved water. […] Experimental protocols were approved by the ethics committee for animal experimentation of the CEA, under notification number 12-033. Three- to four-month-old female recipients (at least 6 mice per group) were sublethally irradiated with a dose of 2.8 Gy (1 Gy/min) to the whole body (TBI). Then, 10^4 to 10^5 transduced and selected human cells were injected intravenously into the mice on the day after irradiation. […]
For progenitor assays performed immediately after in vitro transduction and selection, 500 to 1000 cells were plated in methylcellulose based-medium already supplemented with human cytokines (H4434, Stemcell Technologies). […] The colonies were counted and collected after incubation for 11-14 days, washed with PBS and stored. […]
Non-viable cells were excluded by Sytox Blue nucleic acid staining (ThermoFisher Scientific) or with 7AAD (eBioscience). Data were acquired with MACSQUANT instrument (Miltenyi) and analyzed with FlowJo software (Tree Star, Inc). […]

Nc1nc(O)c2ncn(COC(CO)CO)c2n1 [ganciclovir]
sensitivity of LTGCPU7-transduced, puromycin-selected cells to ganciclovir (NIH3T3 cells): sensitive
toxicity in non-transduced cells (CB CD34+ cells): limited
factor of decrease of the number of transduced erythroid progenitors (CB CD34+ cells; 5 μM ganciclovir, 72 hours): 1000
mice in which hCD45+ cells were detected [1]: one of the eight mice

COc1ccc(C[C@H](N)C(=O)N[C@H]2[C@@H](O)[C@H](n3cnc4c(N(C)C)ncnc43)O[C@@H]2CO)cc1 [puromycin]
absolute numbers of transduced progenitors, presence versus absence of puromycin ([2]; LTGCPU1-transduced, optimized protocol): similar
proportion of vector-bearing progenitors (myeloid and erythroid) ([2]; LTGCPU1-transduced, 5 μg/mL puromycin for 24 hours, 48 hours after transduction): more than 90%
mean VCN per cell, pooled cells ([2]; LTGCPU1-transduced, puromycin 10 μg/mL, selected 24 hours after transduction): 1.6
mean VCN per cell, pooled cells ([2]; LTGCPU1-transduced, puromycin treatment began two or three days after transduction): ~1.08
percentage of transduced progenitor cells in vitro ([2]; mPB cells, after selection with puromycin (data not shown)): 100%
mean VCN in puromycin-treated cells ([2]; mPB cells, in vitro): greater than 1
absolute numbers of vector-bearing erythroid progenitors (BFU-Es), presence versus absence of treatment [3]: similar
selection of LTGCPU7-transduced cord blood progenitors (cord blood CD34+ cells; 5 μg/mL puromycin for 24 hours): efficiently selected
mean VCN in erythroid progenitors, pooled cells from methylcellulose (cord blood CD34+ cells; 5 μg/mL puromycin, absence of MDR1 inhibitors): ≈ 0.5
mean VCN and percentage of vector-bearing cells in erythroid progenitors versus untreated (cord blood CD34+ cells; puromycin alone): higher
mean VCN in hCD45+ cells isolated from mice versus absence of treatment [4]: similar
